Assay results reported in US9079876B2, “Imidazole derivatives and preparation method and use thereof” (Beijing Orbiepharm Co., Ltd., priority 2010, dated 2015).

Assays:
[1] = target: T1, cyclooxygenase-1 (COX-1 enzyme) (Homo sapiens, UniProt P23219); experiment: Human whole blood in vitro activity assay, COX-1 (TXB2 by EIA); assay type: cell-based; conditions: read-out: IC50 (μg/mL) COX-1 (converted)
T1 construct: from tissue; host or cells: human whole blood without heparin (platelets) from healthy volunteers
T1 sequence (P23219 24-599): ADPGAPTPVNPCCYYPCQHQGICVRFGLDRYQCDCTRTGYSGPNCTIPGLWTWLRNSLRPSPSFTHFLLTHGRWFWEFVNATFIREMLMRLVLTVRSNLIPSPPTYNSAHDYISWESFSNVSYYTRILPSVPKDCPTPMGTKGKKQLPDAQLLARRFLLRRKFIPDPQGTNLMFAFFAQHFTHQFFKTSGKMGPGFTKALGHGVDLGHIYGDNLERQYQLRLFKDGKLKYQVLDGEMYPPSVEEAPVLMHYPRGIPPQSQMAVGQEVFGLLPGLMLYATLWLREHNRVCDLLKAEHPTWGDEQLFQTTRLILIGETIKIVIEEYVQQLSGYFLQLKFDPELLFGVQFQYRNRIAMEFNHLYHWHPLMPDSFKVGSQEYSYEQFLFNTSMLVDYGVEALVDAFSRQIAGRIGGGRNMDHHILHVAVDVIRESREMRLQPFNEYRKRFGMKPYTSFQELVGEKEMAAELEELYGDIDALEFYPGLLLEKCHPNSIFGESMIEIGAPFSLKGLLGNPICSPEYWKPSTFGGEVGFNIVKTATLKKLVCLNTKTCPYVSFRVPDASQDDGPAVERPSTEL
Procedure: (§1) Human whole blood in vitro activity study: inhibition of activity of cyclooxygenase-1 (COX-1 enzyme) and cyclooxygenase-2 (COX-2 enzyme) in human blood. […] The blood samples were divided into two parts: one was used for detecting COX-1 enzyme activity, and the other was used for detecting COX-2 enzyme activity. The compounds were dissolved in DMSO, and were prepared in advance into 2 μL solutions in respective concentrations of 500, 50, 5, 0.5, 0.05, 0.005, 0.0005 μg/mL. 200 μL whole blood without heparin was added in the tubes containing the compounds, and then incubated at 37° C. for 1 hour. The activity of COX-1 enzyme was detected by determining the amount of thromboxane B2 (TXB2) synthesized by platelet using an EIA kit. Samples tested without the compounds were negative controls. For COX-2, 200 μL whole blood with heparin was added in the tubes containing the compounds and in the tubes containing 10 μg/mL LPS. LPS control and blank control with solvent only were used respectively for determining the maximum value and the background value of the PGE2 produced therefrom. The samples were incubated at 37° C. for 24 hours, and then centrifuged to collect serum/plasma, which was stored at −80° C. for detection by an EIA kit. The EIA kit of Cayman Company was used, the amounts of TXB2 and PGE2 were determined in accordance to the manufacturer's instructions, and the activities of COX-1 and COX-2 were tested respectively.

[2] = target: T2, cyclooxygenase-2 (COX-2 enzyme) (Homo sapiens, UniProt P35354); experiment: Human whole blood in vitro activity assay, COX-2 (LPS-induced PGE2 by EIA); assay type: cell-based; conditions: for IC50: LPS, PGE2, read-out: IC50 (μg/mL) COX-2 (converted)
T2 construct: from tissue; host or cells: heparinised human whole blood from healthy volunteers, stimulated with LPS
T2 sequence (P35354 18-604): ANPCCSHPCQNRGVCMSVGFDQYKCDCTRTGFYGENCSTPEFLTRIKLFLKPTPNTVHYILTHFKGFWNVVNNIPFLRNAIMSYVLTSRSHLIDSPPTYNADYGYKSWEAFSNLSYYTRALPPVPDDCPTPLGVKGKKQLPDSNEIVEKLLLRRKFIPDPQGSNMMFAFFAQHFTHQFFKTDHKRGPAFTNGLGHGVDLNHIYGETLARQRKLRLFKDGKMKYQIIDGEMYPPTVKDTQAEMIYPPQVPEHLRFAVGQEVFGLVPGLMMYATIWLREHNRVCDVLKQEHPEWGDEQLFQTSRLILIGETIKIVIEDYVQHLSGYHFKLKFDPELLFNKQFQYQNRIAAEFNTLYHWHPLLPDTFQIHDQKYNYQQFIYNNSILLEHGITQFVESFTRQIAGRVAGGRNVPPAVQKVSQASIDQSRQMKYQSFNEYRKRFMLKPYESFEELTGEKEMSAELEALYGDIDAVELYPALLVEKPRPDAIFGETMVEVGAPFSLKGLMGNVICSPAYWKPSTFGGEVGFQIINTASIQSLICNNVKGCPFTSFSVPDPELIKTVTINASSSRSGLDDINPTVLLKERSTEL
Procedure: as §1

[3] = target: T3, COX-1 (Canis lupus familiaris, UniProt Q8HZR1); experiment: Dog whole blood in vitro activity assay, COX-1; assay type: cell-based, beagle dog; conditions: read-out: IC50 (μg/mL) COX-1 (converted)
T3 construct: in vitro activity study using beagle dog whole blood was conducted; from tissue; host or cells: beagle dog whole blood (platelets, by the same method as for human blood)
T3 sequence (Q8HZR1 28-603): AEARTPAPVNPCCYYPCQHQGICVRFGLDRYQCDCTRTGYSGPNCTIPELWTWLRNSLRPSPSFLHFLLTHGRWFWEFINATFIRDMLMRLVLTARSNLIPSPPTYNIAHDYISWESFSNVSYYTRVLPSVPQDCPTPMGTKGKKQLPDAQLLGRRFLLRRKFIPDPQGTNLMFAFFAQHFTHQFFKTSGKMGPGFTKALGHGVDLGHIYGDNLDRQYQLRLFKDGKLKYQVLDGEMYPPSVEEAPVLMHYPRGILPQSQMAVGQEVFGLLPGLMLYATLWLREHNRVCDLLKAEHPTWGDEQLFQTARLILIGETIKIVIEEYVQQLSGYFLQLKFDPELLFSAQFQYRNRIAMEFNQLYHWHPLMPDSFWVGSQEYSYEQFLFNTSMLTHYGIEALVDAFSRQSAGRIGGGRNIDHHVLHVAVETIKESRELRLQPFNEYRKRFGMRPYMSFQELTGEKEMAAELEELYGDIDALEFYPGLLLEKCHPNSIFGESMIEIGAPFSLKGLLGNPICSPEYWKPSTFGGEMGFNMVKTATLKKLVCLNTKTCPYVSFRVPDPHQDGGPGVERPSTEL

[4] = target: T4, COX-2 (Canis lupus familiaris, UniProt Q8SPQ9); experiment: Dog whole blood in vitro activity assay, COX-2; assay type: cell-based, beagle dog; conditions: for IC50: read-out: IC50 (μg/mL) COX-2 (converted)
T4 construct: in vitro activity study using beagle dog whole blood was conducted; from tissue; host or cells: beagle dog whole blood, stimulated with LPS (by the same method as for human blood)
T4 sequence (Q8SPQ9 18-604): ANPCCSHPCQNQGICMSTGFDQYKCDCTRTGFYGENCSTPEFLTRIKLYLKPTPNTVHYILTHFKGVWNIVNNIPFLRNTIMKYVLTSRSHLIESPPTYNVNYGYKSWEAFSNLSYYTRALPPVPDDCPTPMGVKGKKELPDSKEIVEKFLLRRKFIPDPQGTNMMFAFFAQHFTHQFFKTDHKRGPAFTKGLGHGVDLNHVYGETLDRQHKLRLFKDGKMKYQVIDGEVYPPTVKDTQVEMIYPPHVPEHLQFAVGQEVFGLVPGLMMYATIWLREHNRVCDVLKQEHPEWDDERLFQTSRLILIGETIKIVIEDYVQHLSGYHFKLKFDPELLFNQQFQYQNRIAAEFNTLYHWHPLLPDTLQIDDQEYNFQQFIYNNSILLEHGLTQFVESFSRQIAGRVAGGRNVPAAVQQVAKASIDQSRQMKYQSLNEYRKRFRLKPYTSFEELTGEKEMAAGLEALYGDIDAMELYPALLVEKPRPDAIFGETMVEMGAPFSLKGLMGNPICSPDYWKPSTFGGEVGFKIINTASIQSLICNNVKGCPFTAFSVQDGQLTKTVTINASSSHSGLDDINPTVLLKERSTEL

[5] = Pharmacokinetic study, intravenous, rats; assay type: in vivo; conditions: male SD rats, IV 2 mg/kg
Procedure: Cimicoxib (cimicoxib) was IV administrated to male SD rats in vivo [2 mg/kg, 2 mg/ml, menstruum: DMSO/PEG 400/30% HP-b-CD ([…])], T1/2 was 3.20 h. The half-life of compound 1 was longer than cimicoxib.

SMILES | IC50 [1] | IC50COX-1/IC50COX-2 [2] | IC50 [2] | IC50 [3] | IC50COX-1/IC50COX-2 [4] | IC50 [4] | t1/2 [5] | AUC(0-t) ([5]; rat, in vivo) | C0 ([5]; rat, in vivo) | clearance ([5]; rat, in vivo) | half-life ([5]; rat, in vivo, 2 mg/ml, DMSO/PEG 400/30% HP-b-CD) | Vd ([5]; rat, in vivo, read-out: Vss)
CS(=O)(=O)c1ccc(-n2cnc(Cl)c2-c2ccc(F)cc2)nc1 [Compound 2, 2-(4-chloro-5-(4-fluorophenyl)-1H-imidazol-1-yl)-5-(methylsulfonyl)pyridine] | 11.2 µM | 21.8 | 0.512 µM | 55.9 µM | 21.4 | 2.62 µM | – | – | – | – | – | –
COc1ccc(-c2c(Cl)ncn2-c2ccc(S(N)(=O)=O)cc2)cc1F [Cimicoxib, reference compound] | 4.16 µM | 8.8 | 0.471 µM | 15.6 µM | 9.5 | 1.65 µM | 3.20 ± 0.80 h | 12000 ± 4400 ng·h/mL | 1980 ± 140 ng/mL | 2.99 ± 0.92 mL/min/kg | 3.2 h | 0.773 ± 0.145 L/kg
Cc1ccc(-c2c(Cl)ncn2-c2ccc(S(C)(=O)=O)cn2)cc1 [Compound 3, 2-(4-chloro-5-p-tolyl-1H-imidazol-1-yl)-5-(methylsulfonyl)pyridine] | 19.7 µM | 76.2 | 0.259 µM | 30.2 µM | 18.8 | 1.61 µM | – | – | – | – | – | –
COc1ccc(-c2c(Cl)ncn2-c2ccc(S(C)(=O)=O)nc2)cc1 [Compound 9, 5-(4-chloro-5-(4-methoxyphenyl)-1H-imidazol-1-yl)-2-(methylsulfonyl)pyridine] | 62.5 µM | 247.2 | 0.253 µM | 553 µM | 239.6 | 2.31 µM | – | – | – | – | – | –
CS(=O)(=O)c1ccc(-n2cncc2-c2ccccc2)cn1 [Compound 8E, 2-(methylsulfonyl)-5-(5-phenyl-1H-imidazol-1-yl)pyridine] | 187 µM | – | > 1670 µM | – | – | – | – | – | – | – | – | –
CS(=O)(=O)c1ccc(-n2cnc(Cl)c2-c2ccc(F)cc2)cn1 [Compound 12, 5-(4-chloro-5-(4-fluorophenyl)-1H-imidazol-1-yl)-2-(methylsulfonyl)pyridine] | 209 µM | 135.9 | 1.54 µM | – | – | – | – | – | – | – | – | –
CS(=O)(=O)c1ccc(-n2cncc2-c2ccccc2)nc1 [Compound 1E, 5-(methylsulfonyl)-2-(5-phenyl-1H-imidazol-1-yl)pyridine] | 86.5 µM | 11.6 | 7.45 µM | – | – | – | – | – | – | – | – | –
COc1ccc(-c2c(Cl)ncn2-c2ccc(S(C)(=O)=O)cn2)cc1 [Compound 5, 2-(4-chloro-5-(4-methoxyphenyl)-1H-imidazol-1-yl)-5-(methylsulfonyl)pyridine] | 0.632 µM | 4.6 | 0.137 µM | – | – | – | – | – | – | – | – | –
